According to patent publication US7091198B1, “2,5-disubstituted pyrimidine derivatives” (Bayer HealthCare AG, priority 2002, dated 2006):

Test system: cGMP in primary cortical neurons
Test: Increase of cGMP in primary cortical neurons
Type: cell-based
Settings: Primary cortical neuron, 20 min; rat embryonic primary cortical neurons; 20 min incubation at 37° C. with IBMX; triplicate determination; more than 2-fold increase compared with the control; read-out: concentration leading to a statistically significant increase in cGMP
Description: Increase of cGMP in Primary Cortical Neurons
Rat embryos (embryonic day 17–19) are decapitated, and the cerebrum is removed and incubated with 5 ml of papain solution and 250 μl of DNAse (papain kit from Cell-System) at 37° C. for 30 min, homogenized using a Pasteur pipette and centrifuged at 1200 rpm for 5 min. The supernatant is removed, the cell pellet resuspended (in 2.7 ml of EBSS [Earl's balanced salt solution], 300 μl of ovomucoid/albumin (conc.) solution, 150 μl of DNAse; papain kit from Cell-System), layered over 5 ml of ovomucoid/albumin solution and centrifuged at 700 rpm for 6 min. The supernatant is removed, the cells are resuspended in cultivation medium (Gibco neurobasal medium, B27 Supplement 50×1 ml/100 ml, 2 mM L-glutamine), counted (approx. 150 000 cells/well) and plated out on poly-D-lysine-coated 96-well plates (Costar) with 200 μl/well. After 6–7 days at 37° C. (5% CO2), the neurons are freed of culture medium and washed once with assay buffer (154 mM NaCl, 5.6 mM KCl, 2.3 mM CaCl2.2H2O, 1 mM MgCl2, 5.6 mM glucose, 8.6 mM HEPES (4-(2-hydroxyethyl)piperazine-1-ethanesulfonic acid), pH=7.4). 100 μl/well test substance are dissolved in assay buffer and then 100 μl/well IBMX (3-isobutyl-1-methylxanthine; dissolved in 50 mM ethanol, diluted with assay buffer to a final concentration of 100 μM) are added. After incubation at 37° C. for 20 min, the assay buffer is replaced by 200 μl/well of lysis buffer (cGMP EIA RPN 226 from Amersham Pharmacia Biotech), and the cGMP content of the lystates is determined using an EIA assay kit.
The concentrations indicated in Table 1 lead to a statistically significant increase in cGMP (triplicate determination; more than 2-fold increase compared with the control)

SMILES	minimal effective concentration [µM]
CO[C@H]1CN(c2cnc(-c3nn(Cc4ccccc4F)c4ncccc34)nc2)C[C@@H]1OC [Example 6]	0.27
Fc1ccccc1Cn1nc(-c2ncc(N3CC4CNCC(C3)O4)cn2)c2cccnc21 [Example 10]	1.2
O=C1CCCCC1c1cnc(-c2nn(Cc3ccccc3F)c3ncccc23)nc1 (centres unmarked) [Example 13, 2-{2-[1-(2-Fluorobenzyl)-1H-pyrazol[3,4-b]pyridin-3-yl]-5-pyrimidinyl}-cyclohexanone]	0.27
Fc1ccccc1Cn1nc(-c2ncc(N3CC4CCC(C3)O4)cn2)c2cccnc21 [Example 19, 1-(2-Fluorobenzyl)-3-[5-(8-oxa-3-azabicyclo[3.2.1]oct-3-yl)-2-pyrimidinyl]-1H-pyrazolo[3,4-b]pyridine]	0.27
CO[C@H]1CCN(c2cnc(-c3nn(Cc4ccccc4F)c4ncccc34)nc2)C1 [Example 20, 1-(2-Fluorobenzyl)-3-{5-[(3S)-3-methoxy-1-pyrrolidinyl]-2-pyrimidinyl}-1 H-pyrazolo[3,4-b]pyridine]	0.27
COc1ccccc1-c1cnc(-c2nn(Cc3ccccc3F)c3ncccc23)nc1 [Example 27]	0.9
Fc1ccccc1Cn1nc(-c2ncc(-c3cn[nH]c3C3CC3)cn2)c2cccnc21 [Example 36, 3-[5-(5-Cyclopropyl-1H-pyrazol-4-yl)-2-pyrimidinyl]-1-(2-fluorobenzyl)-1 H-pyrazolo[3,4-b]pyridine]	0.27
O=C1CCN(c2cnc(-c3nn(Cc4ccccc4F)c4ncccc34)nc2)C1 [Example 38, 1-{2-[1-(2-Fluorobenzyl)-1H-pyrazol[3,4-b]pyridin-3-yl]-5-pyrimidinyl}-3-pyrrolidinone]	0.27
